Structures can show the parent of a compound that is named as a salt.
Tests used:
[1] = Solvent screening: solubility of midazolam hydrochloride in process solvents; assay type: physicochemical
Description: For each solvent, four test tubes were prepared, containing about 1 g solvent and midazolam hydrochloride at amounts of about 0.1 wt %, 1 wt %, 4 wt % and 7 wt %, respectively. The tubes were thoroughly mixed and were then visually observed and photographed. After 15 minutes of resting, they were again visually observed and photographed, and were then mixed again. After another 1 hour, they were finally visually observed and photographed. It was noted whether there were any undissolved solid material remaining, approximately how much, and whether it had sedimented at the bottom or formed a whitish suspension, and if that suspension was translucent or opaque. No analytical method, e.g., HPLC Assay, was used to actually quantify the precise solubilities because the main aim was just to determine whether the midazolam hydrochloride was predominately dissolved or solid, at 4 wt % and 7 wt % respectively, which represent typical levels for the midazolam hydrochloride content in a wet mix. If midazolam hydrochloride was predominately […] at 7 wt %, the solvent was deemed to be potentially very feasible.

[2] = XRPD of sedimented material from the solvent screening; assay type: physicochemical; settings: solvent evaporated at ambient temperature
Description: Test tubes prepared with ethanol and ethyl acetate, respectively, corresponding to the last step in Example 14, were prepared and allowed to sediment overnight. The solvents in each sample of sedimented material were slowly evaporated off at ambient temperature and atmospheric pressure. It was then subjected to the XRPD method described in Example 12 except that only steps 1-2 of that method were performed, and that the reference “API raw material” recorded in step 1 was midazolam hydrochloride and not midazolam base.

## Cc1ncc2n1-c1ccc(Cl)cc1C(c1ccccc1F)=NC2 [midazolam hydrochloride]
[1]; 1-pentanol, 0.1 wt %
  Visual appearance at last observation: clear
[1]; 1-pentanol, 1 wt %
  Visual appearance at last observation: translucent
[1]; 1-pentanol, 4 wt %
  Visual appearance at last observation: opaque
[1]; 1-pentanol, 7 wt %
  Visual appearance at last observation: opaque
[1]; 2-propanol, 0.1 wt %
  Visual appearance at last observation: clear
[1]; 2-propanol, 1 wt %
  Visual appearance at last observation: translucent
[1]; 2-propanol, 4 wt %
  Visual appearance at last observation: opaque
[1]; 2-propanol, 7 wt %
  Visual appearance at last observation: opaque
[1]; acetone, 0.1, 1, 4 and 7 wt %
  Visual appearance at last observation: clear supernatant over sedimented
[1]; ethanol, 0.1 wt %
  Visual appearance at last observation: clear
[1]; ethanol, 1 wt %
  Visual appearance at last observation: clear
[1]; ethanol, 4 wt %
  Visual appearance at last observation: opaque
[1]; ethanol, 7 wt %
  Visual appearance at last observation: opaque
[1]; ethyl acetate, 0.1 wt %
  Visual appearance at last observation: cloudy
[1]; ethyl acetate, 1 wt %
  Visual appearance at last observation: opaque
[1]; ethyl acetate, 4 wt %
  Visual appearance at last observation: opaque
[1]; ethyl acetate, 7 wt %
  Visual appearance at last observation: opaque
[1]; in 1-pentanol
  Solubility (tentative interpretation): Solubility is between 0.1-1 wt %
[1]; in 2-propanol
  Solubility (tentative interpretation): Solubility is between 0.1-1 wt %
[1]; in acetone
  Solubility (tentative interpretation): Solubility is ≤0.1 wt %. Solvent
[1]; in ethanol
  Solubility (tentative interpretation): Solubility is between 1-4 wt %.
[1]; in ethyl acetate
  Solubility (tentative interpretation): Solubility is ≤0.1 wt %. Solvent
[1]; in isobutyl acetate
  Solubility (tentative interpretation): Solubility is ≤0.1 wt %. Solvent
[1]; in methyl acetate
  Solubility (tentative interpretation): Solubility is ≤0.1 wt %. Solvent
[1]; isobutyl acetate, 0.1 wt %
  Visual appearance at last observation: cloudy
[1]; isobutyl acetate, 1 wt %
  Visual appearance at last observation: opaque
[1]; isobutyl acetate, 4 wt %
  Visual appearance at last observation: opaque
[1]; isobutyl acetate, 7 wt %
  Visual appearance at last observation: opaque
[1]; methyl acetate, 0.1 wt %
  Visual appearance at last observation: cloudy
[1]; methyl acetate, 1 wt %
  Visual appearance at last observation: opaque
[1]; methyl acetate, 4 wt %
  Visual appearance at last observation: opaque
[1]; methyl acetate, 7 wt %
  Visual appearance at last observation: opaque
[2]; sediment from ethanol
  XRPD identity of sedimented material: a solid crystalline material that was not midazolam hydrochloride
[2]; sediment from ethyl acetate
  XRPD identity of sedimented material: appeared to be identical to midazolam hydrochloride

From US20260240761A1, “ORAL FILM UNIT DOSAGE FORM” (SWIPP AB, priority 2023, published 2026)
